Measured values as given in patent publication US20120129764A1 (priority 2009, published 2012).

What was measured:
PA (FluB) = assay type: binding, influenza B virus
PA (FluA) = assay type: binding, influenza A virus

Row | Sequence | IC50 (PA (FluB)) [nM] | IC50 (PA (FluA)) [nM] | competition for binding to FluA PA (PA (FluA)) | competition for binding to FluB PA (PA (FluB))
1 | MDVNPHLLFLKVPAQ [PB11-15AT6H, -----H---------] | > 3000 | – | – | –
2 | MDVNPTLLFIDVPAQ [PB11-15AL10I,K11D, ---------ID----] | > 3000 | – | – | –
3 | MNINPYFLFIDVPIQ [PB11-15B, -NI--YF--ID--I-, reference compound] | 45 | > 3000 | not FluA PA binding | blocked FluB PA
4 | MNINPTLLFLKVPIQ [PB11-15AD2N,V3I,L14I, -NI----------I-] | > 3000 | – | – | –
5 | MDVNPCLLFLKVPAQ [PB11-15AT6C, -----C---------] | > 3000 | 43.6 | – | –
6 | MDVNPWLLFLKVPAQ [PB11-15AT6W] | 628 | 3.4 | – | –
7 | MDVNPYLLFLKVPAQ [PB11-15AT6Y] | 107 | 21.6 | decreased binding of FluA PA compared to the double mutant, yet binding was still better than with wild type peptide | binding to FluB PA increased
8 | MDVNPFLLFLKVPAQ [PB11-15AT6F] | 750 | 2.84 | – | –
9 | MDVNPYFLFLKVPAQ [PB11-15AT6Y,L7F] | 345 | 7.51 | competed for binding to FluA PA | also to FluB PA, albeit with less affinity than PB11-15B
10 | MNINPTLLFLKVPAQ [PB11-15AD2N,V3I, -NI------------] | > 3000 | – | – | –
11 | MDVNPTLLFLKVPAQ [PB11-15A, reference compound] | > 3000 | – | – | not FluB PA binding
12 | MDVNPTFLFLKVPAQ [PB11-15AL7F, ------F--------] | > 3000 | – | – | –
